Experimental data: ChEMBL document CHEMBL1201862, “PubChem BioAssay data set” (2004)
The source made the active and inactive calls.

What was measured:
[1] = target: Glyceraldehyde-3-phosphate dehydrogenase (Homo sapiens, UniProt P04406)
[2] = target: T1, Bcl-2-related protein A1 (Mus musculus, UniProt Q07440); assay: small-molecule antagonists of Bfl-1/BH3 interaction – biochemical, TR-FRET, mouse Bfl-1, confirmation (AID 621);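 note: TR-FRET binding of GST-Bfl-1 to FITC-labelled Bid peptide via terbium antibody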
T1 sequence (Q07440 whole entry): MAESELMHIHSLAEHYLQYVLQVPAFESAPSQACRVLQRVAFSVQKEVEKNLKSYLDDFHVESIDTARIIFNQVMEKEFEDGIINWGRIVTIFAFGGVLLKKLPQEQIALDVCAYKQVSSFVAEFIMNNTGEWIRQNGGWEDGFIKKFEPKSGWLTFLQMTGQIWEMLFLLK

[3] = target: T1, Bcl-2-related protein A1; assay: Bfl-1 binding inhibitors, SAR follow-up, biochemical, fluorescence polarization (AID 1070)
[4] = target: E3 ubiquitin-protein ligase Mdm2 (Homo sapiens, UniProt Q00987); assay: MDM2-luc reporter signal enhancers, multi-concentration potency testing, MDM2 ubiquitin-protein ligase inhibitor program, whole-cell format, luminescence detection, 384-well microplate (AID 1394); assay type: functional;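 note: MDM2 E3 inhibitors raise luminescence so EC50 is for signal enhancement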
Sequence of E3 ubiquitin-protein ligase Mdm2 (Q00987 whole entry): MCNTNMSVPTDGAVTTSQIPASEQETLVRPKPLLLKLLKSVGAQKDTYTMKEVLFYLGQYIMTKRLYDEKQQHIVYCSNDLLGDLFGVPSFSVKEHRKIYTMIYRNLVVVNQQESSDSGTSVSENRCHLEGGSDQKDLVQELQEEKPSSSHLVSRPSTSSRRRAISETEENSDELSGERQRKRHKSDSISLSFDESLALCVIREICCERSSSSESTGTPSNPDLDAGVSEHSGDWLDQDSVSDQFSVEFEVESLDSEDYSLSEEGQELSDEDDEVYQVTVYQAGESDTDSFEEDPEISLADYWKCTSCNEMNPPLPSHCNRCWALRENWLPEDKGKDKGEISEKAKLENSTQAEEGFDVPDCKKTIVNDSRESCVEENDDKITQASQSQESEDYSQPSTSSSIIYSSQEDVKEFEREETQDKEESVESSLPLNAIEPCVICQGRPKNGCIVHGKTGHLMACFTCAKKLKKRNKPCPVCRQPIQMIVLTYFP

[5] = target: T2, Methionyl-tRNA synthetase, putative (Trypanosoma brucei brucei, UniProt Q38C91); assay type: functional, Trypanosoma brucei brucei strain 927/4 GUTat10.1
T2 sequence (Q38C91 whole entry): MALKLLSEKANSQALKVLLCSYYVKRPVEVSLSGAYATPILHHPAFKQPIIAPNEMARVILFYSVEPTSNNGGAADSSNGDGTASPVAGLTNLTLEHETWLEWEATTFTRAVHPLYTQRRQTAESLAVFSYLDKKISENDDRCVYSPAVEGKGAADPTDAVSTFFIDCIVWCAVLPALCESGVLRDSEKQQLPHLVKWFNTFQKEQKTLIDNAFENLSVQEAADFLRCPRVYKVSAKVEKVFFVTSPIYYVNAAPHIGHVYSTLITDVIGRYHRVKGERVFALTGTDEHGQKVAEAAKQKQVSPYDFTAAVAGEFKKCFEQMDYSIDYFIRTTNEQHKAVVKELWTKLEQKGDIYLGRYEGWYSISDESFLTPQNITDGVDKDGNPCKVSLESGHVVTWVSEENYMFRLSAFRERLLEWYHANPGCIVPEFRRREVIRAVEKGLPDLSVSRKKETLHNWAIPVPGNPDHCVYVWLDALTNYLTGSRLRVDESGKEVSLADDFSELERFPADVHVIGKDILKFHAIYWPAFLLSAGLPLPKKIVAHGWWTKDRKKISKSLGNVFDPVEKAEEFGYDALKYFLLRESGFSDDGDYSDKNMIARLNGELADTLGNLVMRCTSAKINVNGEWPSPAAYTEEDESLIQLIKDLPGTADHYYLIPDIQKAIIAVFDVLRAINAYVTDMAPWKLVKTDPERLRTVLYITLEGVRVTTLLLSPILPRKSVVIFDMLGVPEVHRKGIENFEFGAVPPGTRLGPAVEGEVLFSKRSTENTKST

[6] = Counterscreen for inhibitors of Trypanosoma brucei methionyl tRNA synthetase (MetRS): Luminescence-based cell-based high throughput dose response assay to identify compounds that are cytotoxic to Jurkat human T lymphocyte cells.; assay type: functional
[7] = target: T2, Methionyl-tRNA synthetase, putative; assay type: functional, Trypanosoma brucei brucei strain 927/4 GUTat10.1; remark: listed apart in the source
[8] = Late stage counterscreen for inhibitors of Trypanosoma brucei methionyl tRNA synthetase (MetRS): Luminescence-based cell-based high throughput dose response assay to identify compounds that are cytotoxic to Jurkat human T lymphocyte cells.; assay type: functional
[9] = growth inhibition of yeast DHODH-expressing 3D7 parasites – SYBR Green, dry powder samples, dose response (AID 1159570); assay type: functional, cell-based;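 note: parasite growth measured after 72 hours of compound exposure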
[10] = toxicity to human HepG2 hepatoma cells – cell-based, plate reader, dry powder samples, cytotoxicity control, dose response (AID 1159569); assay type: functional;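 note: inhibitor potency with signal falling toward the positive control level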
[11] = P. falciparum Dd2 growth inhibitors, dose response, SYBR Green, cherry-picked samples (AID 1159567); assay type: functional, cell-based
[12] = Dd2 malaria parasite growth inhibition potency – SYBR Green, dry powder samples, dose response (AID 1159566); assay type: functional, cell-based;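 note: potency for growth inhibition with lower SYBR green DNA signal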
[13] = toxicity to human hepatoma HepG2 cells – cell-based, cherry-picked samples, cytotoxicity control, dose response (AID 1159577); assay type: functional
[14] = growth inhibition of PfATP4-mutant resistant parasites – NITD609-resistant line, SYBR Green, dry powder, dose response (AID 1159571); assay type: functional, cell-based;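 note: parasites synchronized at ring stage by sorbitol before testing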
[15] = Dd2 parasite growth inhibition in erythrocytes – SYBR Green, dry powder samples, set 9, dose response (AID 1159568); assay type: functional, cell-based
[16] = target: T3, SUMO-activating enzyme (Homo sapiens, UniProt Q9UBT2); assay: blockers of UBC9-mediated SUMO conjugation – biochemical, AlphaScreen, SUMOylation inhibitor project, confirmation (AID 2018); assay type: functional
T3 sequence (Q9UBE0 whole entry): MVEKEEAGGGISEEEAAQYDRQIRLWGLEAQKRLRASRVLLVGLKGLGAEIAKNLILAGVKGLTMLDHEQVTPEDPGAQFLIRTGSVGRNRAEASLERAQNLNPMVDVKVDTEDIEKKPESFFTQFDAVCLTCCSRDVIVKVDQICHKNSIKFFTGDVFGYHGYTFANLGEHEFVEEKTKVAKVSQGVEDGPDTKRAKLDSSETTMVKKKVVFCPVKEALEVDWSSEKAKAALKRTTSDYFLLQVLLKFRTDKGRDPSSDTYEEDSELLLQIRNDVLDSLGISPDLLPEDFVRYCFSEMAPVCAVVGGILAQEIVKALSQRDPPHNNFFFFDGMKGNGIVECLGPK
T3 sequence (Q9UBT2 whole entry): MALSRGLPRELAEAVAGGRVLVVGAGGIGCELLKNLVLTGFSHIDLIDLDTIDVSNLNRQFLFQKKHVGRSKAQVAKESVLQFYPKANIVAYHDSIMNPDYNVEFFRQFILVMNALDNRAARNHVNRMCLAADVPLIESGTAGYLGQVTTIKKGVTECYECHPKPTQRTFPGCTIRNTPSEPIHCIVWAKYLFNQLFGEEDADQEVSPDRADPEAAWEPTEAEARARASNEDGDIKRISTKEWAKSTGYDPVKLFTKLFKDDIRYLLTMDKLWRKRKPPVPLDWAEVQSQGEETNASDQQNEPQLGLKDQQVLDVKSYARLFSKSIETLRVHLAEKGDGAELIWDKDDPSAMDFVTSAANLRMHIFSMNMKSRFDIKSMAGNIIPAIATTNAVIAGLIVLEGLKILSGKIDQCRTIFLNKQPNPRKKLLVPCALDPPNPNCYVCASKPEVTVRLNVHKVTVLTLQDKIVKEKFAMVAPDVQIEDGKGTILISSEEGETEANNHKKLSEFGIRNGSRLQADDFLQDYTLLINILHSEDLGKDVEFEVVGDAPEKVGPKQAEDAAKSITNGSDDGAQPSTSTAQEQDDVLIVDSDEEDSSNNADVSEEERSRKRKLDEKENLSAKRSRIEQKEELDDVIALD

[17] = target: T3, SUMO-activating enzyme; assay: blockers of SAE1/SAE2–UBC9 SUMO transfer – biochemical, HTRF, uHTS, primary screen (AID 2006); assay type: protein-complex assay
[18] = target: Bifunctional protein GlmU (Mycobacterium tuberculosis, UniProt P9WMN3); assay: Inhibitors of Mycobacterial Glucosamine-1-phosphate acetyl transferase (GlmU). Secondary screen.; set-up: species or system Mycobacterium tuberculosis H37Rv
Sequence of Bifunctional protein GlmU (P9WMN3 whole entry): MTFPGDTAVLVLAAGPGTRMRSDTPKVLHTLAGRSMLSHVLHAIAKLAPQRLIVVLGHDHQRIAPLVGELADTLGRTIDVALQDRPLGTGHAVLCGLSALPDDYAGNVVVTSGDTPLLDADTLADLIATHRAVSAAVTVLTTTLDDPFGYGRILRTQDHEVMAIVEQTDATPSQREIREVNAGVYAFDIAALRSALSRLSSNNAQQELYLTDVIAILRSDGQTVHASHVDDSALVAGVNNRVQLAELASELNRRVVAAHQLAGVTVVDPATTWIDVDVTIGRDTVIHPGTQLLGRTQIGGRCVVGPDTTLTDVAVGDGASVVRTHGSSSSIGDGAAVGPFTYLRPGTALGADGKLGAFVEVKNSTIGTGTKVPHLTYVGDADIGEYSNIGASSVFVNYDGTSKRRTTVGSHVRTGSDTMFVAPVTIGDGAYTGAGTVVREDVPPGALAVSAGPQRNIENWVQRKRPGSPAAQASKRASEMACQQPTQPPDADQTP

[19] = target: Eukaryotic translation initiation factor 4E (Mus musculus, UniProt P63073); assay: blockers of eIF4G binding by eIF4E – biochemical, TR-FRET, dose response (AID 855); assay type: functional;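 note: potency for disrupting eIF4E binding to eIF4GI seen as loss of FRET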
Sequence of Eukaryotic translation initiation factor 4E (P63073 whole entry): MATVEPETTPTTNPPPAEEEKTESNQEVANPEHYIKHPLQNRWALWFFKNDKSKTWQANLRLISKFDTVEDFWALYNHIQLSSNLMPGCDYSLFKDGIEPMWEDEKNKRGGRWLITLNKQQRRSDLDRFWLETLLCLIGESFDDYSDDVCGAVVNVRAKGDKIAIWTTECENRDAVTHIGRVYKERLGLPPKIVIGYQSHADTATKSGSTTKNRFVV

Sequence of Glyceraldehyde-3-phosphate dehydrogenase (P04406 whole entry): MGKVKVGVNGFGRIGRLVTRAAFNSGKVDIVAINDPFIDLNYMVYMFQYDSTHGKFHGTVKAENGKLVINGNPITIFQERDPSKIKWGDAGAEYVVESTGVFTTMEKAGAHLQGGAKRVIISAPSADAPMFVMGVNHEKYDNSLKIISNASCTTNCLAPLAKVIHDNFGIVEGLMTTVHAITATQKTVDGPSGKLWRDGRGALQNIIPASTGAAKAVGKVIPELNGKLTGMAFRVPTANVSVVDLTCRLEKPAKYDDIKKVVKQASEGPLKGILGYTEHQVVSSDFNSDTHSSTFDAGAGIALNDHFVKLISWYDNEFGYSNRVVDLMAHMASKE

**Q.** Which IC50 [1] does the source give for `O=C1C(Cl)=C(N2CCOCC2)C(=O)N1c1ccc(Cl)cc1Cl` here?
**A.** The IC50 was > 10 µM (inconclusive).

**Q.** And the IC50 [2]?
**A.** Its IC50 is > 100 µM (not active).

**Q.** And the IC50 [3]?
**A.** The IC50 was > 100 µM (not active).

**Q.** For `CCOc1ccc(NC(=S)NCCCN2CCOCC2)cc1`, which EC50 [4] is on record?
**A.** Its EC50 is 1.95 µM (not active).

**Q.** Which IC50 [5] does the source give for `CCCCCCCCCC1NC(C(=O)O)Cc2c1[nH]c1ccccc21` (stereo unspecified) here?
**A.** Its IC50 is 3.75 µM (active).

**Q.** What about the IC50 [6] of the same compound?
**A.** The IC50 was 83.3 µM (inactive).

**Q.** And the IC50 [7]?
**A.** Its IC50 is 1.96 µM (active).

**Q.** And the IC50 [8]?
**A.** Its IC50 is > 83.3 µM (inactive).

**Q.** With `OC[C@@H]1[C@@H](c2ccccc2)C2(CN(Cc3ccc4c(c3)OCO4)C2)N1Cc1ccccc1` as the compound, how does the AC50 [9] read?
**A.** The AC50 was 634 nM (active).

**Q.** And the AC50 [10]?
**A.** The AC50 was 17.9 µM (active).

**Q.** And the AC50 [11]?
**A.** The AC50 was 619 nM (active).

**Q.** What about the AC50 [12] of the same compound?
**A.** Its AC50 is 444 nM (active).

**Q.** What about the AC50 [13] of the same compound?
**A.** Its AC50 is > 39 µM (inactive).

**Q.** What about the AC50 [14] of the same compound?
**A.** The AC50 was 616 nM (active).

**Q.** For `C[C@H]1CN([C@@H](C)CO)C(=O)c2cccc(NC(=O)c3ccc(-c4nccs4)cc3)c2O[C@H]1CN(C)C(=O)Nc1ccc(C(F)(F)F)cc1`, which AC50 [15] is on record?
**A.** Its AC50 is 8.06 µM (active).

**Q.** Which AC50 [15] does the source give for `C[C@H](CO)N1C[C@H](C)[C@@H](CN(C)S(=O)(=O)c2ccccc2)OCCCC[C@H](C)Oc2ccc(NC(=O)Nc3ccc4c(c3)OCO4)cc2C1=O` here?
**A.** The AC50 was 2.35 µM (active).

**Q.** Which AC50 [9] does the source give for `COc1ccc2c3c([nH]c2c1)[C@H](CO)N(C(=O)CN(C)C)CC31CCN(CC2CCCCC2)CC1` here?
**A.** Its AC50 is 46.8 nM (active).

**Q.** And the AC50 [10]?
**A.** Its AC50 is 19.1 µM (active).

**Q.** And the AC50 [11]?
**A.** The AC50 was 644 nM (active).

**Q.** And the AC50 [12]?
**A.** Its AC50 is 433 nM (active).

**Q.** And the AC50 [13]?
**A.** Its AC50 is > 39 µM (inactive).

**Q.** What about the AC50 [14] of the same compound?
**A.** The AC50 was 1120 nM (active).

**Q.** For `O=C(O)CCCCC1CCSS1` (stereo not drawn) [LIPOIC ACID, ALPHA], which IC50 [16] is on record?
**A.** Its IC50 is 620 nM (active).

**Q.** And the IC50 [17]?
**A.** Its IC50 is 4.74 µM (active).

**Q.** And the IC50 [18]?
**A.** Its IC50 is 3.91 µM (active).

**Q.** And the IC50 [19]?
**A.** The IC50 was 16.6 µM (active).
